Measurements from patent publication US20130053434A1, “IRREVERSIBLE INHIBITORS USEFUL FOR THE TREATMENT OF KINASE-RELATED PATHOLOGIES” (CENTRE NATIONAL DE LA RECHERCHE SCIENTIFIQUE, priority 2009, published 2013).
Where two headings read alike, the source gives them in different places. One block for each molecule: values may come before it.

Legend:
[1] = molecular target: Flt3 K663Q (Homo sapiens, UniProt P36888, K663Q); assay: kinase mutants: Flt3 K663Q; type: binding; conditions: gain of function mutation
Method: (§1) Two representative library members (1afh and 1bgi) were then evaluated in a larger panel of kinases (402) using the technology described by Lockhart et al. (M. A. Fabian, et al., Nat. Biotechnol. 2005, 23, 329-336; M. W. Karaman, et al., Nat. Biotechnol. 2008, 26, 127-132). In this panel, 31 kinases out of the 46 kinases bioinformatically identified by Santi and coworkers are present along with numerous other kinases bearing a cysteine residue at other positions within the ATP-binding pocket (J. Zhang, P. L. Yang, N. S. Gray, Nat. Rev. Cancer 2009, 9, 28-39).
(§2) The two compounds were also evaluated against a series of mutations of Flt3 and KIT. It is known that several mutation in Flt3 lead to a gain of function or constitutive activity.

[2] = molecular target: KIT V559D, T670I (Homo sapiens, UniProt P10721, T670I/V559D); assay: kinase mutants: KIT V559D, T670I; type: binding; conditions: dual mutation conferring resistance to imatinib
Sequence of KIT V559D, T670I (P10721 26-976 V559D/T670I): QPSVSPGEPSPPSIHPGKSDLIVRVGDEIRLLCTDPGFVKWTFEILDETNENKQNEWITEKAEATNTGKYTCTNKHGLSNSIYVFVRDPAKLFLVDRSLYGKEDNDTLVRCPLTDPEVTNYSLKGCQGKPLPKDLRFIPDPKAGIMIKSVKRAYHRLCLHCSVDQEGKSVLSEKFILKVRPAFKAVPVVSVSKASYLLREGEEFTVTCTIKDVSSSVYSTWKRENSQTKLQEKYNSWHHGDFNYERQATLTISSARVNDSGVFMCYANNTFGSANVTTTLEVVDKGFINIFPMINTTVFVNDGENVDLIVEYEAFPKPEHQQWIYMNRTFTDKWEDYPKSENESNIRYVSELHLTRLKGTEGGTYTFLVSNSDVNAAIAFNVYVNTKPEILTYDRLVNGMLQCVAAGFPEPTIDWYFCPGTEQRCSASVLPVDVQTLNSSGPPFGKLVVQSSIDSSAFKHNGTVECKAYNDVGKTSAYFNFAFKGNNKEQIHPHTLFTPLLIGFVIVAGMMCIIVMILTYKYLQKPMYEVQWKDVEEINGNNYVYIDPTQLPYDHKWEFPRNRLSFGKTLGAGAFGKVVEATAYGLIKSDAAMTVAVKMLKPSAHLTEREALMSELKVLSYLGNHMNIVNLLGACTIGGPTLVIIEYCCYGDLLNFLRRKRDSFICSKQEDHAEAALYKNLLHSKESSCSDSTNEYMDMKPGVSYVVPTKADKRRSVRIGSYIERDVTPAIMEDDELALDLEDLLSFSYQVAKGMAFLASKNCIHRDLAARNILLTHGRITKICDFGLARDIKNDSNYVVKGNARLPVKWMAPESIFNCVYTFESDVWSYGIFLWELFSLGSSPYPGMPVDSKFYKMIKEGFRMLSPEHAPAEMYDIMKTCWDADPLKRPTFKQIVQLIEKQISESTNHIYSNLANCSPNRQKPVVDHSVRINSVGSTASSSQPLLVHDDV
Method: as §1, §2

[3] = system: panel of kinases (402); assay: larger panel of kinases (402), competition binding, whole panel; conditions: 1 μM
Method: as §1
(§3) The selectivity profile was measure using the KinomeScan™ technology (http://www.kinomescan.com/) based on active-site dependent competition binding assay (Karaman, M. W., et al. (2008) Nat. Biotechnol. 26, 127-32; Fabian, M. A., et al. (2005) Nat. Biotechnol. 23, 329-36). Compounds 3 and 5 were profiled against a panel of 50 kinases including 42 kinases from the group of 48 kinases predicted by Santi et al. (Schirmer, A., et al. (2006) Proc. Natl. Acad. Sci. USA 103, 4234-9) to be targeted by hypothemycin and 5 mutants of FLT3 as well as 3 mutants of KIT. Both compounds were assayed at 1 μM. The results are expressed as a percentage of signal between a negative (DMSO) and positive (know binder) control [(test compound−positive control)/([…])×100].

[4] = molecular target: KIT L576P (Homo sapiens, UniProt P10721, L576P); assay: kinase mutants: KIT L576P; type: binding; conditions: gain of function mutation
Sequence of KIT L576P (P10721 26-976 L576P): as the sequence (P10721 26-976 V559D/T670I) above, with D534V, L551P, I645T counted along it
Method: as §1, §2

[5] = system: Flt3 N841L; assay: kinase mutants: Flt3 N841L; type: binding; conditions: gain of function mutation
Method: as §1, §2

[6] = molecular target: KIT V559D, V654A (Homo sapiens, UniProt P10721, V559D/V654A); assay: kinase mutants: KIT V559D, V654A; type: binding; conditions: dual mutation conferring resistance to imatinib
Sequence of KIT V559D, V654A (P10721 26-976 V559D/V654A): as the sequence (P10721 26-976 V559D/T670I) above, with V629A, I645T counted along it
Method: as §1, §2

[7] = molecular target: T1, PDGFRβ (Homo sapiens, UniProt P09619); assay: panel of 402 kinases: PDGFRβ; type: binding; conditions: 1 μM
T1 construct: purchased KinomeScan
T1 sequence (P09619 33-1106): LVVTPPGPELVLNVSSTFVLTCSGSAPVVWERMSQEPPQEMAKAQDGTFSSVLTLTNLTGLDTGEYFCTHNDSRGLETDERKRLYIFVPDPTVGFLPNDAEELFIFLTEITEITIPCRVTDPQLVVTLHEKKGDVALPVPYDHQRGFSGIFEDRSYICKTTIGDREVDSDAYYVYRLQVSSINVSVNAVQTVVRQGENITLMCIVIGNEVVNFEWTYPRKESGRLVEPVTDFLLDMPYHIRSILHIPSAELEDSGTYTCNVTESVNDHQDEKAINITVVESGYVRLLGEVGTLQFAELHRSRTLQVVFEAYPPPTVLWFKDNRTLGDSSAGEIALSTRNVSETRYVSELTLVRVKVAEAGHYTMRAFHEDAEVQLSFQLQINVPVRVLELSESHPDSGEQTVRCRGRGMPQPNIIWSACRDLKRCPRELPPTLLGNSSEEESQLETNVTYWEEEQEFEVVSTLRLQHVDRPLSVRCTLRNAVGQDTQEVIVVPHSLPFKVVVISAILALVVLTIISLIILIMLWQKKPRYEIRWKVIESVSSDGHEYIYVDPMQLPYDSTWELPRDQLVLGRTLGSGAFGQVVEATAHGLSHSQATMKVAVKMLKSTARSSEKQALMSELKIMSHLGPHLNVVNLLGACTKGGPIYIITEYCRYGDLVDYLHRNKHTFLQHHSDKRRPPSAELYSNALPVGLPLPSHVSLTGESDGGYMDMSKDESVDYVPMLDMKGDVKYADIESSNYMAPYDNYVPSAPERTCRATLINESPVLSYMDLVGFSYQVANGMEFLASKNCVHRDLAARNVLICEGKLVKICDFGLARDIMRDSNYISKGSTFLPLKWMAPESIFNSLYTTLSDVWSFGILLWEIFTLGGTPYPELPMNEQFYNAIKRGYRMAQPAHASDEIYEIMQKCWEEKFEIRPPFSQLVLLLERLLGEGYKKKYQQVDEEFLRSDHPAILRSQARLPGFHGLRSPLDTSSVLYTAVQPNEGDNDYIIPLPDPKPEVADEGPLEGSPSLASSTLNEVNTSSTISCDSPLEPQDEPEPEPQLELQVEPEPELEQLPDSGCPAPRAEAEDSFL
Method: as §1, §3

[8] = molecular target: T2, MEK4 (Homo sapiens, UniProt P45985); assay: panel of 402 kinases: MEK4; type: binding; conditions: read-out: residual activity relatively to control
T2 construct: purchased KinomeScan
T2 sequence (P45985 whole entry): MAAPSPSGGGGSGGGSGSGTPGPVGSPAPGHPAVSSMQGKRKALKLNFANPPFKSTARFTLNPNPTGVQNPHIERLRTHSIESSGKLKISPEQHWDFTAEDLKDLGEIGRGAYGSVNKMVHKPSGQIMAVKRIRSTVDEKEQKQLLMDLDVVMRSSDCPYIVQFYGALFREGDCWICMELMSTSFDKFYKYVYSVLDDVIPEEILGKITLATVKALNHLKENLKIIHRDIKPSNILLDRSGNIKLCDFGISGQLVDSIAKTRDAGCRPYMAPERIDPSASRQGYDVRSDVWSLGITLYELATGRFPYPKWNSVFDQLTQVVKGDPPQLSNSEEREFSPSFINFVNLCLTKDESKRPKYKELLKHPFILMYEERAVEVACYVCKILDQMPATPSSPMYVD
Method: as §1, §3

[9] = molecular target: KIT D816V (Homo sapiens, UniProt P10721, D816V); assay: kinase mutants: KIT D816V; type: binding; conditions: gain of function mutation
Sequence of KIT D816V (P10721 26-976 D816V): as the sequence (P10721 26-976 V559D/T670I) above, with D534V, I645T, D791V counted along it
Method: as §1, §2

[10] = molecular target: Flt3 D835Y (Homo sapiens, UniProt P36888, D835Y); assay: kinase mutants: Flt3 D835Y; type: binding; conditions: gain of function mutation
Method: as §1, §2

[11] = molecular target: KIT V559D (Homo sapiens, UniProt P10721, V559D); assay: kinase mutants: KIT V559D; type: binding; conditions: gain of function mutation
Sequence of KIT V559D (P10721 26-976 V559D): as the sequence (P10721 26-976 V559D/T670I) above, with I645T counted along it
Method: as §1, §2

[12] = molecular target: T3, Flt1 (Homo sapiens, UniProt P17948); assay: panel of 402 kinases: Flt1; type: binding; conditions: 1 μM
T3 construct: purchased KinomeScan
T3 sequence (P17948 27-1338): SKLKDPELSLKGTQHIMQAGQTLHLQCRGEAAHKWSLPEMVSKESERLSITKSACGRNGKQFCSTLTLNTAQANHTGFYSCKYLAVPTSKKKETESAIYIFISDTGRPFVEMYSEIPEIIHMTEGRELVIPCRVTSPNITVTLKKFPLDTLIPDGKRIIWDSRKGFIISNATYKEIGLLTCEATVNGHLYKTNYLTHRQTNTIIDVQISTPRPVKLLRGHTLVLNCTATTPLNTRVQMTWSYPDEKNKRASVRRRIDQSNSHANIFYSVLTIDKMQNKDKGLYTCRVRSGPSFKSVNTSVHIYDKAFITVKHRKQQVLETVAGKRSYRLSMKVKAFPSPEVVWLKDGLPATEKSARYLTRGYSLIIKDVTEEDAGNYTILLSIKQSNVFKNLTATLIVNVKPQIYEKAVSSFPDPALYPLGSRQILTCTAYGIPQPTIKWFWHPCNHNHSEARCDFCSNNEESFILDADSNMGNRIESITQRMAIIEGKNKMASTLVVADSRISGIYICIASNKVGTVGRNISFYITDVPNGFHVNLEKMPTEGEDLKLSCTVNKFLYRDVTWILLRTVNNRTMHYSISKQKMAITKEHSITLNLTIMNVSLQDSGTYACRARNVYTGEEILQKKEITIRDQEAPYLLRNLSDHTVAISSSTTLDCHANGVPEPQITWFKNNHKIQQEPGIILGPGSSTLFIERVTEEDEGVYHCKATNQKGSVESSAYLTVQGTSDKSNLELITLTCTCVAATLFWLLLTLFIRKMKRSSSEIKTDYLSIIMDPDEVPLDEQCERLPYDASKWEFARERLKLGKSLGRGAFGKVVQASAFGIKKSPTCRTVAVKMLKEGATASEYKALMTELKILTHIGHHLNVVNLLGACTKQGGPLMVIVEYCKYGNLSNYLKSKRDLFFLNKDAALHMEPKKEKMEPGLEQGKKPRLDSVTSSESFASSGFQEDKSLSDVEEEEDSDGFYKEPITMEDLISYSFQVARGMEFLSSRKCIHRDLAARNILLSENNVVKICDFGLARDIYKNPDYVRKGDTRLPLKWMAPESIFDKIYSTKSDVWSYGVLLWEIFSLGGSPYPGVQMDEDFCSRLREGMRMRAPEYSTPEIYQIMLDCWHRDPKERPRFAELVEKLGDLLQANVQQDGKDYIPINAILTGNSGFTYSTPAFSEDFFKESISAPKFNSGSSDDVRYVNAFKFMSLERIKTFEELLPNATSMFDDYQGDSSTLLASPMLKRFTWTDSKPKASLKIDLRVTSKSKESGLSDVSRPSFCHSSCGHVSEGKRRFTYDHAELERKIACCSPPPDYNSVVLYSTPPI
Method: as §1, §3

[13] = in vivo; cited from earlier work
[14] = ester bond, DIAD/PPh3, toluene, 23.0 °C, 2.0 h

sensitivity of mutant to the inhibitors [1]: remained equally sensitive | activity against dual mutation [2]: not active | number of kinases outside of the set of 46 predicted kinases showing significant inhibition (STK36 and PRKD2) [3]: two | number of kinases out of 31 with more than 50% residual activity ([3]; 31 of the 46 predicted kinases): 19 | activity against mutant [4]: retained their activity | sensitivity of mutant to the inhibitors [5]: remained equally sensitive | activity against dual mutation [6]: not active | activity compared to 1afh [7]: ten times less active | remaining activity at 1 µM [8]: 1% | activity against mutant [9]: retained their activity | activity against mutant compared with wild type [10]: more active than against the wild type | activity against mutant [11]: retained their activity | activity compared to 1afh [12]: ten times less active
Structure (SMILES): O=C1OCC/C=C\C(=O)[C@@H](O)[C@@H](O)[C@H](O)COc2cc(O)cc(O)c21 [1bgi]

Structure (SMILES): CCOc1cc2ncc(C#N)c(Nc3ccc(F)c(Cl)c3)c2cc1NC(=O)/C=C/CN(C)C [EKB-569]
safety in phase I clinical trial [13]: safe

Structure (SMILES): CCOCOc1cc2c(c(OCOCC)c1)C(=O)O[C@@H](C)C/C=C\C(OC(=O)c1ccccc1)[C@H]1OC(C)(C)O[C@H]1CCO2 (stereo partly shown)
ring closure, yield of all isomers ([14]; from CCOCOc1cc(OCC[C@@H]2OC(C)(C)O[C@@H]2C(/C=C\C[C@@H](C)O)OC(=O)c2ccccc2)c(C(=O)O)c(OCOCC)c1, 10.7 mM): 80%

Structure (SMILES): CCOCOc1cc2c(c(OCOCC)c1)C(=O)O[C@@H](C)C/C=C\C(OC(=O)c1ccccc1)[C@H]1OC(C)(C)O[C@H]1CC/C=C/2 (stereo partly shown)
ring closure, yield of all isomers ([14]; from CCOCOc1cc(/C=C/CC[C@@H]2OC(C)(C)O[C@@H]2C(/C=C\C[C@@H](C)O)OC(=O)c2ccccc2)c(C(=O)O)c(OCOCC)c1, 10.5 mM): 70%
